# Data as given in patent US10954252B1, “Inhibitors of human immunodeficiency virus replication” (ViiV HEALTHCARE UK (NO.5) LIMITED, priority 2017, dated 2021).
# How the values were obtained:
# [1] = system: recombinant NL4-3 virus (nef section replaced with Renilla luciferase gene) in MT-2 cells; assay: HIV cell culture assay (antiviral activity, luciferase readout); assay type: cell-based; details: MT-2 cells infected for 4-5 days with recombinant NL4-3 luciferase virus
# Procedure: HIV cell culture assay—MT-2 cells, 293T cells and the proviral DNA clone of NL4-3 virus were obtained from the NIH AIDS Research and Reference Reagent Program. MT-2 cells were propagated in RPMI 1640 media supplemented with 10% heat inactivated fetal bovine serum (FBS), 100 μg/ml penicillin G and up to 100 units/mL streptomycin. The 293T cells were propagated in DMEM media supplemented with 10% heat inactivated FBS, 100 μg/mL penicillin G and 100 μg/mL streptomycin. A recombinant NL4-3 proviral clone, in which a section of the nef gene was replaced with the Renilla luciferase gene, was used to make the reference virus used in these studies. The recombinant virus was prepared through transfection of the recombinant NL4-3 proviral clone into 293T cells using Transit-293 Transfection Reagent from Mirus Bio LLC (Madison, Wis.). Supernatent was harvested after 2-3 days and the amount of virus present was titered in MT-2 cells using luciferase enzyme activity as a marker by measuring luciferase enzyme activity. Luciferase was quantitated using the EnduRen Live Cell Substrate from Promega (Madison, Wis.). Antiviral activities of compounds toward the recombinant virus were quantified by measuring luciferase activity in MT-2 cells infected for 4-5 days with the recombinant virus in the presence of serial dilutions of the compound.
# The 50% effective concentration (ECs) was calculated by using the exponential form of the median effect equation where (Fa)=1/[1+(ED50/drug conc.)^m] (Johnson Va., Byington RT. Infectivity Assay. In Techniques in HIV Research. ed. Aldovini A, Walker BD. 71-76. New York: Stockton Press. 1990).
# [2] = Compound cytotoxicity, XTT-based colorimetric assay; assay type: cell-based; details: human, uninfected MT2 cells, Table 1a, day 4, XTT
# Procedure: Compound cytotoxicity and the corresponding CC50 values were determined using the same protocol as described in the antiviral assay except that uninfected cells were used. Cytotoxicity was assessed on day 4 in uninfected MT2 cells by using a XTT (2,3-bis[2-Methoxy-4-nitro-5-sulfophenyl]-2H-tetrazolium-5-carboxyanilide inner salt)-based colorimetric assay (Sigma-Aldrich, St Louis, Mo.). Biological data for select compounds of the invention are contained in Table 1 and Table 1a
Compound,"EC50 ([1]; Renilla, NL43, Table 1a)",CC50 at 4 days [2],EC50 ([1]; Table 1a)
"COc1ccc2c(=O)n(-c3ccc(Cl)c4c(NS(C)(=O)=O)nn(CC(F)F)c34)c([C@H](Cc3cc(F)cc(F)c3)NC(=O)Cn3nc(C(F)F)c4c3C(F)(F)[C@@H]3C[C@H]43)nc2n1 (mixture of isomers) [Example 54.2, N-[(1S)-1-{3-[4-chloro-1-(2,2-difluoroethyl)-3-methanesulfonamido-1H-indazol-7-yl]-7-methoxy-4-oxo-3H,4H-pyrido[2,3-d]pyrimidin-2-yl}-2-(3,5-difluorophenyl)ethyl]-2-[(2S,4R)-9-(difluoromethyl)-5,5-difluoro-7,8-diazatricyclo[4.3.0.0^2,4]nona-1(6),8-dien-7-yl]acetamide]",0.026 nM,> 1000 nM,
"COc1ccc2c(=O)n(-c3ccc(Cl)c4c(NS(=O)(=O)C5CC5)nn(CC(F)F)c34)c([C@H](Cc3cc(F)cc(F)c3)NC(=O)Cn3nc(C(F)F)c4c3C(F)(F)[C@@H]3C[C@H]43)nc2n1 (mixture of isomers) [Example 56.2, N-[(1S)-1-{3-[4-chloro-3-cyclopropanesulfonamido-1-(2,2-difluoroethyl)-1H-indazol-7-yl]-7-methoxy-4-oxo-3H,4H-pyrido[2,3-d]pyrimidin-2-yl}-2-(3,5-difluorophenyl)ethyl]-2-[(2S,4R)-9-(difluoromethyl)-5,85-difluoro-7,8-diazatricyclo[4.3.0.0^2,4]nona-1(6),8-dien-7-yl]acetamide]",0.022 nM,> 1000 nM,
"COc1ccc2c(=O)n(-c3ccc(Cl)c4c(NS(C)(=O)=O)nn(C)c34)c([C@H](Cc3cc(F)cc(F)c3)NC(=O)Cn3ccc(C4CC4)n3)nc2n1 (mixture of isomers) [Example 58.1, N-[(1S)-1-[3-(4-chloro-3-methanesulfonamido-1-methyl-1H-indazol-7-yl)-7-methoxy-4-oxo-3H,4H-pyrido[2,3-d]pyrimidin-2-yl]-2-(3,5-difluorophenyl)ethyl]-2-(3-cyclopropyl-1H-pyrazol-1-yl)acetamide]",,> 1000 nM,2.26 nM
CCOc1ccc2c(=O)n(-c3ccc(Cl)c4c(NS(C)(=O)=O)nn(C)c34)c(C(Cc3cc(F)cc(F)c3)NC(=O)Cn3nc(C(F)F)c4c3C(F)(F)[C@@H]3C[C@H]43)nc2n1 (mixture of isomers) [Example 60.1],0.397 nM,> 1000 nM,
"CCOc1ccc2c(=O)n(-c3ccc(Cl)c4c(NS(C)(=O)=O)nn(C)c34)c([C@H](Cc3cc(F)cc(F)c3)NC(=O)Cn3nc(C(F)F)c4c3C(F)(F)[C@@H]3C[C@H]43)nc2n1 (mixture of isomers) [Example 60.2, N-[(1S)-1-[3-(4-chloro-3-methanesulfonamido-1-methyl-1H-indazol-7-yl)-7-ethoxy-4-oxo-3H,4H-pyrido[2,3-d]pyrimidin-2-yl]-2-(3,5-difluorophenyl)ethyl]-2-[(2S,4R)-9-(difluoromethyl)-5,5-difluoro-7,8-diazatricyclo[4.3.0.0^2,4]nona-1(6),8-dien-7-yl]acetamide]",0.0174 nM,> 1000 nM,
Cc1ccc(C)c2c(=O)n(-c3ccc(Cl)c4c(NS(C)(=O)=O)nn(C)c34)c(C(Cc3cc(F)cc(F)c3)NC(=O)Cn3nc(C(F)F)c4c3C(F)(F)[C@@H]3C[C@H]43)nc12 (mixture of isomers) [Example 67],183 nM,> 1000 nM,
COc1c(F)cc2c(=O)n(-c3ccc(Cl)c4c(NS(C)(=O)=O)nn(C)c34)c([C@H](Cc3cc(F)cc(F)c3)NC(=O)Cn3nc(C(F)F)c4c3C(F)(F)[C@@H]3C[C@H]43)nc2c1F (mixture of isomers) [Example 114],0.071 nM,> 1000 nM,
"Cn1nc(NS(C)(=O)=O)c2c(Cl)ccc(-n3c([C@H](Cc4cc(F)cc(F)c4)NC(=O)Cn4nc(C(F)F)c5c4C(F)(F)[C@@H]4C[C@H]54)nc4ccc(F)c(Cl)c4c3=O)c21 (mixture of isomers) [Example 159, N—((S)-1-(5-chloro-3-(4-chloro-1-methyl-3-(methylsulfonamido)-1H-indazol-7-yl)-6-fluoro-4-oxo-3,4-dihydroquinazolin-2-yl)-2-(3,5-difluorophenyl)ethyl)-2-((3bS,4aR)-3-(difluoromethyl)-5,5-difluoro-3b,4,4a,5-tetrahydro-1H-cyclopropa[3,4]cyclopenta[1,2-c]pyrazol-1-yl)acetamide]",9.49 nM,> 1000 nM,
"Cn1nc(NS(C)(=O)=O)c2c(Cl)ccc(-n3c([C@H](Cc4cc(F)cc(F)c4)NC(=O)Cn4nc(C(F)F)c5c4C(F)(F)[C@@H]4C[C@H]54)nc4cc(C#N)ccc4c3=O)c21 (mixture of isomers) [Example 166, N—((S)-1-(3-(4-chloro-1-methyl-3-(methylsulfonamido)-1H-indazol-7-yl)-7-cyano-4-oxo-3,4-dihydroquinazolin-2-yl)-2-(3,5-difluorophenyl)ethyl)-2-((3bS,4aR)-3-(difluoromethyl)-5,5-difluoro-3b,4,4a,5-tetrahydro-1H-cyclopropa[3,4]cyclopenta[1,2-c]pyrazol-1-yl)acetamide]",26 nM,> 1000 nM,
"Cn1nc(NS(C)(=O)=O)c2c(Cl)ccc(-n3c([C@H](Cc4cc(F)cc(F)c4)NC(=O)Cn4nc(C(F)F)c5c4C(F)(F)[C@@H]4C[C@H]54)nc4cc(Cl)ccc4c3=O)c21 (mixture of isomers) [Example 167, N—((S)-1-(7-chloro-3-(4-chloro-1-methyl-3-(methylsulfonamido)-1H-indazol-7-yl)-4-oxo-3,4-dihydroquinazolin-2-yl)-2-(3,5-difluorophenyl)ethyl)-2-((3bS,4aR)-3-(difluoromethyl)-5,5-difluoro-3b,4,4a,5-tetrahydro-1H-cyclopropa[3,4]cyclopenta[1,2-c]pyrazol-1-yl)acetamide]",,> 1000 nM,80.5 nM
"COc1cccc2nc([C@H](Cc3cc(F)cc(F)c3)NC(=O)Cn3nc(C(F)F)c4c3C(F)(F)[C@@H]3C[C@H]43)n(-c3ccc(Cl)c4c(NS(C)(=O)=O)nn(C)c34)c(=O)c12 (mixture of isomers) [Example 169, N—((S)-1-(3-(4-chloro-1-methyl-3-(methylsulfonamido)-1H-indazol-7-yl)-5-methoxy-4-oxo-3,4-dihydroquinazolin-2-yl)-2-(3,5-difluorophenyl)ethyl)-2-((3bS,4aR)-3-(difluoromethyl)-5,5-difluoro-3b,4,4a,5-tetrahydro-1H-cyclopropa[3,4]cyclopenta[1,2-c]pyrazol-1-yl)acetamide]",,> 1000 nM,119 nM
"Cn1nc(NS(C)(=O)=O)c2c(Cl)ccc(-n3c([C@H](Cc4cc(F)cc(F)c4)NC(=O)Cn4nc(C(F)F)c5c4C(F)(F)[C@@H]4C[C@H]54)nc4ccc(Cl)c(F)c4c3=O)c21 (mixture of isomers) [Example 175, N—((S)-1-(6-chloro-3-(4-chloro-1-methyl-3-(methylsulfonamido)-1H-indazol-7-yl)-5-fluoro-4-oxo-3,4-dihydroquinazolin-2-yl)-2-(3,5-difluorophenyl)ethyl)-2-((3bS,4aR)-3-(difluoromethyl)-5,5-difluoro-3b,4,4a,5-tetrahydro-1H-cyclopropa[3,4]cyclopenta[1,2-c]pyrazol-1-yl)acetamide]",10.9 nM,> 1000 nM,
"Cn1nc(NS(C)(=O)=O)c2c(Cl)ccc(-n3c([C@H](Cc4cc(F)cc(F)c4)NC(=O)Cn4nc(C(F)F)c5c4C(F)(F)[C@@H]4C[C@H]54)nc4cc(Cl)cc(Cl)c4c3=O)c21 (mixture of isomers) [Example 178, N—((S)-1-(5,7-dichloro-3-(4-chloro-1-methyl-3-(methylsulfonamido)-1H-indazol-7-yl)-4-oxo-3,4-dihydroquinazolin-2-yl)-2-(3,5-difluorophenyl)ethyl)-2-((3bS,4aR)-3-(difluoromethyl)-5,5-difluoro-3b,4,4a,5-tetrahydro-1H-cyclopropa[3,4]cyclopenta[1,2-c]pyrazol-1-yl)acetamide]",18.1 nM,> 1000 nM,
"COc1cc(F)c2c(=O)n(-c3ccc(Cl)c4c(NS(C)(=O)=O)nn(C)c34)c([C@H](Cc3cc(F)cc(F)c3)NC(=O)Cn3nc(C(F)F)c4c3C(F)(F)[C@@H]3C[C@H]43)nc2c1 (mixture of isomers) [Example 185, N—((S)-1-(3-(4-chloro-1-methyl-3-(methylsulfonamido)-1H-indazol-7-yl)-5-fluoro-7-methoxy-4-oxo-3,4-dihydroquinazolin-2-yl)-2-(3,5-difluorophenyl)ethyl)-2-((3bS,4aR)-3-(difluoromethyl)-5,5-difluoro-3b,4,4a,5-tetrahydro-1H-cyclopropa[3,4]cyclopenta[1,2-c]pyrazol-1-yl)acetamide]",87.3 nM,> 1000 nM,
